Assay results from patent US20230233569A1 (Revolution Medicines, Inc., priority 2020, published 2023).
Like-named read-outs stand apart in the source and are kept apart here.

How the values were obtained:
[1] = test system: Capan-1 (K-Ras G12V); experiment: CellTiter-Glo cell viability assay, 5-day treatment; type: cell-based; conditions: Homo sapiens, CAPAN-1, 120 h
How it was run: (§1)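 Five-day compound treatment of plated cells; luminescent read after ~30 min at RT. Percent-of-DMSO data fit to a four-parameter logistic model.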

[2] = test system: NCI-H358 (K-Ras G12C); experiment: as above; type: cell-based; conditions: Homo sapiens, NCI-H358, 120 h
How it was run: as §1

[3] = target: KRAS G12C (Homo sapiens, UniProt P01116+P62937, G12C); experiment: Disruption of BRAF RBD interaction with Ras (FRET / MOA assay, with Cyclophilin A); type: biochemical
KRAS G12C, sequence (P01116 1-169 isoform P01116-2 G12C): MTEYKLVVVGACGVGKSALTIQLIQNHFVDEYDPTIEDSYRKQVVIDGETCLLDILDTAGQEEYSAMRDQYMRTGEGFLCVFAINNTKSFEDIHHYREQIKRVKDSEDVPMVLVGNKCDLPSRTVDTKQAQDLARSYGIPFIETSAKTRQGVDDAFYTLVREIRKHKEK
KRAS G12C, sequence (P62937 whole entry): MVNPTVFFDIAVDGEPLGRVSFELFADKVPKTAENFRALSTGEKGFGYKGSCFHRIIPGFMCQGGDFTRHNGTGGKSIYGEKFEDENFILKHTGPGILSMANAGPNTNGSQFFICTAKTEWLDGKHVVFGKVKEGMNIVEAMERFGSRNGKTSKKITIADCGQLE
How it was run: (§2)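 First, compounds at a ten-point threefold dilution series (highest final concentration 30 μM) were incubated with nucleotide-loaded K-Ras, Cyclophilin A and BRAF RBD for 3 h at 25 °C. Next, detection antibodies were added for 1.5 h. Finally, IC50 was calculated from TR-FRET ratio decreases against DMSO controls.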

[4] = target: KRAS G12D (Homo sapiens, UniProt P01116+P62937, G12D); experiment: as above; type: biochemical
KRAS G12D, sequence (P01116 1-169 isoform P01116-2 G12D limits assumed): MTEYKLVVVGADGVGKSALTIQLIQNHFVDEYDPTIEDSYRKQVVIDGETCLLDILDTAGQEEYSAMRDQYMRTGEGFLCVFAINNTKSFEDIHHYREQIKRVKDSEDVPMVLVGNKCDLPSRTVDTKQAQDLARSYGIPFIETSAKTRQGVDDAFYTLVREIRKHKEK
KRAS G12D, sequence (P62937 whole entry): as the sequence (P62937 whole entry) above
How it was run: as §2

[5] = target: KRAS G12S (Homo sapiens, UniProt P01116+P62937, G12S); experiment: as above; type: biochemical
KRAS G12S, sequence (P01116 1-169 isoform P01116-2 G12S limits assumed): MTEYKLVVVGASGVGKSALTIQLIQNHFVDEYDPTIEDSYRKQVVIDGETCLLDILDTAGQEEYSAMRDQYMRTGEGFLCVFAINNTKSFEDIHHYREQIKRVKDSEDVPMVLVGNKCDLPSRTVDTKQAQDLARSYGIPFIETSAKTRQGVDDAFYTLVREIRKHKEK
KRAS G12S, sequence (P62937 whole entry): as the sequence (P62937 whole entry) above
How it was run: as §2

[6] = target: KRAS G12V (Homo sapiens, UniProt P01116+P62937, G12V); experiment: as above; type: biochemical
KRAS G12V, sequence (P01116 1-169 isoform P01116-2 G12V limits assumed): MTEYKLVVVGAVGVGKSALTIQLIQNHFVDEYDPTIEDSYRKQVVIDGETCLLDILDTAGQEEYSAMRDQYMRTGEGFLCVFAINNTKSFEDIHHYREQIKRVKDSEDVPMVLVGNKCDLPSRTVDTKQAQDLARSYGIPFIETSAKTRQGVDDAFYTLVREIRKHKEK
KRAS G12V, sequence (P62937 whole entry): as the sequence (P62937 whole entry) above
How it was run: as §2

[7] = target: KRAS G13C (Homo sapiens, UniProt P01116+P62937, G13C); experiment: as above; type: biochemical
KRAS G13C, sequence (P01116 1-169 isoform P01116-2 G13C): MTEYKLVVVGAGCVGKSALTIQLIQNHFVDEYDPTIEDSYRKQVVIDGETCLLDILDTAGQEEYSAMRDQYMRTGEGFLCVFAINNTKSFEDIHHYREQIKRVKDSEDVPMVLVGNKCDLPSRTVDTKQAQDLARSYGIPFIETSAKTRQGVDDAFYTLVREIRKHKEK
KRAS G13C, sequence (P62937 whole entry): as the sequence (P62937 whole entry) above
How it was run: as §2

[8] = target: KRAS G13D (Homo sapiens, UniProt P01116+P62937, G13D); experiment: as above; type: biochemical
KRAS G13D, sequence (P01116 1-169 isoform P01116-2 G13D limits assumed): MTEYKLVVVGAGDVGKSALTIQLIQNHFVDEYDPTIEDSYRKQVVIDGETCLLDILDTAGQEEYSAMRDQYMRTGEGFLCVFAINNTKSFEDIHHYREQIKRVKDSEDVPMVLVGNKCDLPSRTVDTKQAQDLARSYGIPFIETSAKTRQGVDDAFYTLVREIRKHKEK
KRAS G13D, sequence (P62937 whole entry): as the sequence (P62937 whole entry) above
How it was run: as §2

[9] = target: KRAS WT (Homo sapiens, UniProt P01116+P62937); experiment: as above; type: biochemical
KRAS WT, sequence (P01116 1-169 isoform P01116-2 limits assumed): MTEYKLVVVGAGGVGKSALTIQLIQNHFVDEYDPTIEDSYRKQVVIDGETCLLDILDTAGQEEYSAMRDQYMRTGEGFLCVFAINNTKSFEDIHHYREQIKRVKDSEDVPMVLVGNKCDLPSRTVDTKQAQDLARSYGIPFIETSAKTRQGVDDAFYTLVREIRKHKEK
KRAS WT, sequence (P62937 whole entry): as the sequence (P62937 whole entry) above
How it was run: as §2

[10] = target: NRAS G12C (Homo sapiens, UniProt P01111+P62937, G12C); experiment: as above; type: biochemical
NRAS G12C, sequence (P01111 whole entry G12C): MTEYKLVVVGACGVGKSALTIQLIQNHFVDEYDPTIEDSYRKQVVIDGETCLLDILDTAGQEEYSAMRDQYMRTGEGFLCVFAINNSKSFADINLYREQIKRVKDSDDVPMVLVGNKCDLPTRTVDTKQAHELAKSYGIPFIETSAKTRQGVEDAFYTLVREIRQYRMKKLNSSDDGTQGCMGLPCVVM
NRAS G12C, sequence (P62937 whole entry): as the sequence (P62937 whole entry) above

[11] = 5-day treatment, read-out: Capan-1 Cell Viability assay data (K-Ras G12V, IC50)
[12] = 5-day treatment, read-out: H358 Cell Viability assay data (K-Ras G12C, IC50)
[13] = read-out: KRAS G12C FRET data, IC50
[14] = read-out: KRAS G12D FRET data, IC50
[15] = read-out: KRAS G12S FRET data, IC50
[16] = KRAS G12V, read-out: KRAS G12V FRET data IC50
[17] = read-out: KRAS G13C FRET data, IC50
[18] = KRAS G13D, read-out: KRAS G13D FRET data IC50
[19] = KRAS WT, read-out: KRAS WT FRET data IC50
[20] = NRAS G12C, read-out: NRAS G12C FRET data IC50
[21] = KRAS G12V FRET data IC50, KRAS G12V
[22] = KRAS G13D FRET data IC50, KRAS G13D
[23] = KRAS WT FRET data IC50, KRAS WT
[24] = NRAS G12C FRET data IC50, NRAS G12C

Compound	IC50 [1, 11] [µM]	IC50 [2, 12] [µM]	IC50 [3, 13] [nM]	IC50 [4, 14] [nM]	IC50 [5, 15] [nM]	IC50 [6, 16] [nM]	IC50 [7, 17] [nM]	IC50 [8, 18] [nM]	IC50 [9, 19] [nM]	IC50 [10, 20] [nM]	IC50 ([3]; KRAS G12C FRET data, IC50) [nM]	IC50 ([4]; KRAS G12D FRET data, IC50) [nM]	IC50 ([5]; KRAS G12S FRET data, IC50) [nM]	IC50 [6, 21] [nM]	IC50 ([7]; KRAS G13C FRET data, IC50) [nM]	IC50 [8, 22] [nM]	IC50 [9, 23] [nM]	IC50 [10, 24] [nM]	IC50 ([1]; read-out: Capan-1 Cell Viability assay data (K-Ras G12V, IC50, uM)) [µM]	IC50 ([2]; read-out: H358 Cell Viability assay data (K-Ras G12C, IC50, uM), 5-day treatment) [µM]
CCn1c(-c2cccnc2[C@H](C)OC)c2c3cc(ccc31)-c1cc(O)cc(c1)C[C@H](NC(=O)[C@H](C(C)C)N(C)C(=O)[C@H]1CCN(C(=O)[C@@H]3CCCN3C)C1)C(=O)N1CCC[C@H](N1)C(=O)OCC(C)(C)C2 [Example A385]	0.1 to 1	0.1 to 1	10 to 100	10 to 100	10 to 100	10 to 100	10 to 100	10 to 100	10 to 100	10 to 100	–	–	–	–	–	–	–	–	–	–
CCn1c(-c2cccnc2[C@H](C)OC)c2c3cc(ccc31)-c1cc(O)cc(c1)C[C@H](NC(=O)[C@H](C(C)C)N(C)C(=O)[C@H]1CCCNC1)C(=O)N1CCC[C@H](N1)C(=O)OCC(C)(C)C2 [Example A243]	> 10	0.1 to 1	10 to 100	10 to 100	10 to 100	100 to 1000	10 to 100	10 to 100	10 to 100	10 to 100	–	–	–	–	–	–	–	–	–	–
CCn1c(-c2cnccc2[C@H](C)OC)c2c3cc(ccc31)-c1cc(O)cc(c1)C[C@H](NC(=O)[C@H](C(C)C)N(C)C(C)=O)C(=O)N1CCC[C@H](N1)C(=O)OCC(C)(C)C2 [Example A21]	0.1 to 1	0.1 to 1	100 to 1000	1000 to 10000	100 to 1000	100 to 1000	10 to 100	100 to 1000	100 to 1000	100 to 1000	–	–	–	–	–	–	–	–	–	–
CCn1c(-c2cccnc2[C@H](C)OC)c2c3cc(ccc31)-c1cc(O)cc(c1)C[C@H](NC(=O)[C@H](C(C)C)N(C)C(=O)C1(N)CC1)C(=O)N1CCC[C@H](N1)C(=O)OCC(C)(C)C2 [Example A168]	0.1 to 1	0.1 to 1	10 to 100	100 to 1000	100 to 1000	100 to 1000	10 to 100	100 to 1000	10 to 100	10 to 100	–	–	–	–	–	–	–	–	–	–
CCn1c(-c2cnccc2COC)c2c3cc(ccc31)-c1cc(O)cc(c1)C[C@H](NC(=O)[C@H](C(C)C)N(C)C(=O)[C@H]1CCN(C(=O)OC)C1)C(=O)N1CCC[C@H](N1)C(=O)OCC(C)(C)C2 [Example A11, methyl (3S)-3-{[(1S)-1-{[(8S,14S)-22-ethyl-4-hydroxy-21-[4-(methoxymethyl)pyridin-3-yl]-18,18-dimethyl-9,15-dioxo-16-oxa-10,22,28-triazapentacyclo[18.5.2.1^2,6.1^10,14.0^23,27]nonacosa-1(26),2,4,6(29),20,23(27),24-heptaen-8-yl]carbamoyl}-2-methylpropyl](methyl)carbamoyl}pyrrolidine-1-carboxylate]	0.1 to 1	0.1 to 1	–	–	–	–	–	–	–	–	10 to 100	1000 to 10000	100 to 1000	10 to 100	100 to 1000	100 to 1000	100 to 1000	10 to 100	–	–
CCn1c(-c2cccnc2[C@H](C)OC)c2c3cc(ccc31)-c1cc(O)cc(c1)C[C@H](NC(=O)[C@H](C(C)C)N(C)C(=O)[C@H]1CC[C@@H](CN(C)C)O1)C(=O)N1CCC[C@H](N1)C(=O)OCC(C)(C)C2 [Example A397]	0.1 to 1	0.1 to 1	10 to 100	10 to 100	10 to 100	100 to 1000	10 to 100	10 to 100	10 to 100	10 to 100	–	–	–	–	–	–	–	–	–	–
CCn1c(-c2cnccc2COC)c2c3cc(ccc31)-c1cc(O)cc(c1)C[C@H](NC(=O)[C@H](C(C)C)N(C)C(=O)[C@@H]1NC[C@@H]3C[C@@H]31)C(=O)N1CCC[C@H](N1)C(=O)OCC(C)(C)C2 [Example A78]	–	–	–	–	–	–	–	–	–	–	100 to 1000	100 to 1000	100 to 1000	100 to 1000	10 to 100	100 to 1000	100 to 1000	100 to 1000	1 to 10	0.1 to 1
